Data reported in patent US10689383B2, “Optionally fused heterocyclyl-substituted derivatives of pyrimidine useful for the treatment of inflammatory, metabolic, oncologic and autoimmune diseases” (NUEVOLUTION A/S, priority 2014, dated 2020).
pIC50: −log10 of the molar value.

Columns and labels:
[1] = target: T1, yeast Gal4-DNA binding domain fused to the ligand binding domain of human RORγ (Homo sapiens, UniProt P51449); assay: RORγ Reporter Assay (Gal4); assay type: cell-based; details: values given as lower bounds of ranges; for Gal4 activity range @ 0.1 μM (% inhibition): RORγ Reporter Assay (Gal4) at 0.1 μM; for Gal4 activity range @ 1 μM (% inhibition): RORγ Reporter Assay (Gal4) at 1 μM
T1 construct: host or cells: HEK293t
T1 sequence (P51449 269-508 limits assumed): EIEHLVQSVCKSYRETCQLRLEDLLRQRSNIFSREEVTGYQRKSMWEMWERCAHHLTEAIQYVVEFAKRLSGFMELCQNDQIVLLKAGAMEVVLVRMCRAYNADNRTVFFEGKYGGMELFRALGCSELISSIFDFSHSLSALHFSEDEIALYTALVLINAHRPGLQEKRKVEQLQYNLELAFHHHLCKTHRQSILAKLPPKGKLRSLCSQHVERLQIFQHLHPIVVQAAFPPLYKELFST
Summary of the method: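 HEK293t reporter cells expressing the hybrid, with Gal4-UAS-driven firefly luciferase, treated in triplicate with compound at 1,000 nM and 100 nM (0.1% DMSO) in medium with 10% charcoal-stripped FBS for 24 h at 37 °C. Luminescence read; percent reduction of RLU calculated relative to vehicle.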

[2] = target: T2, human RORγt (Ligand Binding Domain) (Homo sapiens, UniProt P51449); assay: Fluorescence Polarization (FP) Assay; details: Fluorescence Polarization (FP) Assay; values given as upper bounds of activity ranges; read-out: FP activity range
T2 construct: purchased Crelux (Planegg, Germany) batch no PC5032-1
T2 sequence (P51449 269-508 limits assumed): T1 sequence (P51449 269-508 limits assumed)
Summary of the method: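 In vitro FP binding assay monitoring ligand binding within the ligand binding pocket. Probe is a TAMRA-labelled RORγt ligand (MW 910 g/mole); DMSO served as negative control.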

Row | Compound | Gal4 activity range @ 0.1 μM (% inhibition) [1] | pIC50 [2] | Gal4 activity range @ 1 μM (% inhibition) [1]
1 | COCC1(CNc2ncnc(N3CCC[C@@H]3c3ccc(C(F)(F)F)cc3)c2F)CCC1 [Example 188, 5-fluoro-N-[[1-(methoxymethyl)cyclobutyl]methyl]-6-[(2R)-2-[4-(trifluoromethyl)phenyl]pyrrolidin-1-yl]pyrimidin-4-amine] | >0 % inhibition | > 6.30 | –
2 | CNC(=O)Cc1ccc(CNc2ncnc(N3CCC[C@@H]3c3ccc(C(F)(F)F)cc3)c2F)cc1 [Example 189, 2-[4-[[[5-fluoro-6-[(2R)-2-[4-(trifluoromethyl)phenyl]pyrrolidin-1-yl]pyrimidin-4-yl]amino]methyl]phenyl]-N-methyl-acetamide] | >20 % inhibition | > 6.30 | –
3 | Fc1c(NC[C@H]2CC[C@H](Cc3nnn[nH]3)CC2)ncnc1N1CCC[C@@H]1c1ccc(C(F)(F)F)cc1 [Example 190, 5-fluoro-N-[[4-(1H-tetrazol-5-ylmethyl)cyclohexyl]methyl]-6-[(2R)-2-[4-(trifluoromethyl)phenyl]pyrrolidin-1-yl]pyrimidin-4-amine] | >80 % inhibition | > 6.30 | >80 % inhibition
4 | CC(=O)N1CCC(CNc2ncnc(N3CCC[C@@H]3c3ccc(C(F)(F)F)cc3)c2F)CC1 [Example 191, 1-[4-[[[5-fluoro-6-[(2R)-2-[4-(trifluoromethyl)phenyl]pyrrolidin-1-yl]pyrimidin-4-yl]amino]methyl]-1-piperidyl]ethanone] | >50 % inhibition | > 6.30 | >80 % inhibition
5 | O=C(O)Cc1ccc(CNc2ncnc(N3CCCC3c3ccc(OC(F)(F)F)cc3)c2F)cc1 (stereo not shown) [Example 192, 2-[4-[[[5-fluoro-6-[2-[4-(trifluoromethoxy)phenyl]pyrrolidin-1-yl]pyrimidin-4-yl]amino]methyl]phenyl]acetic acid] | >50 % inhibition | > 6.30 | –
6 | O=C(O)Cc1ccc(Cn2ccc3c(N4CCC[C@@H]4c4ccc(C(F)(F)F)cc4)ncnc32)cc1 [Example 195, 2-[4-[[4-[(2R)-2-[4-(trifluoromethyl)phenyl]pyrrolidin-1-yl]pyrrolo[2,3-d]pyrimidin-7-yl]methyl]phenyl]acetic acid] | >80 % inhibition | > 6.30 | –
7 | NC(=O)Cc1ccc(Cn2ccc3c(N4CCC[C@@H]4c4ccc(C(F)(F)F)cc4)ncnc32)cc1 [Example 196, 2-[4-[[4-[(2R)-2-[4-(trifluoromethyl)phenyl]pyrrolidin-1-yl]pyrrolo[2,3-d]pyrimidin-7-yl]methyl]phenyl]acetamide] | >80 % inhibition | > 6.30 | –
8 | CS(=O)(=O)N1CCC(CNc2ncnc(N3CCC[C@@H]3c3ccc(C(F)(F)F)cc3)c2F)CC1 [Example 197, 5-fluoro-N-[(1-methylsulfonyl-4-piperidyl)methyl]-6-[(2R)-2-[4-(trifluoromethyl)phenyl]pyrrolidin-1-yl]pyrimidin-4-amine] | >80 % inhibition | > 6.30 | >80 % inhibition
9 | CC1(CNc2ncnc(N3CCC[C@@H]3c3ccc(C(F)(F)F)cc3)c2F)COC1 [Example 198, 5-fluoro-N-[(3-methyloxetan-3-yl)methyl]-6-[2-[4-(trifluoromethyl)phenyl]pyrrolidin-1-yl]pyrimidin-4-amine] | >20 % inhibition | > 6.30 | >80 % inhibition
10 | CC1(CNc2ncnc(N3CCC[C@@H]3c3ccc(C(F)(F)F)cc3)c2F)CCCO1 (stereo partly drawn) [Example 199, 5-fluoro-N-[(2-methyltetrahydrofuran-2-yl)methyl]-6-[(2R)-2-[4-(trifluoromethyl)phenyl]pyrrolidin-1-yl]pyrimidin-4-amine] | >20 % inhibition | > 6.00 | >80 % inhibition
11 | OC1CCCCC1CNc1ncnc(N2CCC[C@@H]2c2ccc(C(F)(F)F)cc2)c1F (stereo partly drawn) [Example 200, 2-[[[5-fluoro-6-[(2R)-2-[4-(trifluoromethyl)phenyl]pyrrolidin-1-yl]pyrimidin-4-yl]amino]methyl]cyclohexanol] | >20 % inhibition | > 6.00 | >80 % inhibition
12 | CC1(CNc2ncnc(N3CCC[C@@H]3c3ccc(C(F)(F)F)cc3)c2F)CCCS1 (stereo partly drawn) [Example 201, 5-fluoro-N-[(2-methyltetrahydrothiophen-2-yl)methyl]-6-[(2R)-2-[4-(trifluoromethyl)phenyl]pyrrolidin-1-yl]pyrimidin-4-amine] | >0 % inhibition | > 6.30 | >80 % inhibition
13 | O=S1(=O)CCOC(CNc2ncnc(N3CCC[C@@H]3c3ccc(C(F)(F)F)cc3)c2F)C1 (stereo partly drawn) [Example 202, N-[(4,4-dioxo-1,4-oxathian-2-yl)methyl]-5-fluoro-6-[(2R)-2-[4-(trifluoromethyl)phenyl]pyrrolidin-1-yl]pyrimidin-4-amine] | >0 % inhibition | > 5.00 | >50 % inhibition
14 | Fc1c(NCc2cccs2)ncnc1N1CCC[C@@H]1c1ccc(C(F)(F)F)cc1 [Example 203, 5-fluoro-N-(2-thienylmethyl)-6-[(2R)-2-[4-(trifluoromethyl)phenyl]pyrrolidin-1-yl]pyrimidin-4-amine] | >0 % inhibition | > 5.70 | >50 % inhibition
15 | O=C(O)CC1CCC(CNc2ncnc(N3CCOC[C@@H]3c3ccc(C(F)(F)F)cc3)c2F)CC1 (stereo partly drawn) [Example 205, 2-[4-[[[5-fluoro-6-[(3S)-3-[4-(trifluoromethyl)phenyl]morpholin-4-yl]pyrimidin-4-yl]amino]methyl]cyclohexyl]acetic acid] | >50 % inhibition | > 6.30 | >80 % inhibition
16 | NC(=O)CC1CCC(CNc2ncnc(N3CCOC[C@@H]3c3ccc(C(F)(F)F)cc3)c2F)CC1 (stereo partly drawn) [Example 206, 2-[4-[[[5-fluoro-6-[(3S)-3-[4-(trifluoromethyl)phenyl]morpholin-4-yl]pyrimidin-4-yl]amino]methyl]cyclohexyl] acetamide] | >20 % inhibition | > 6.00 | >80 % inhibition
